Literature values as cited in patent publication US11980186B2, “Preparation method of eucalyptol emulsion and application thereof in biopesticides” (Jiangnan University, priority 2021, dated 2024).
In brackets after ≈: the same amount, converted by molar mass.

Test system: B. tabaci
Conditions: literature value

O=C1CCC[C@@H]2[C@H]3CCCN4CCC[C@@H](CN12)[C@@H]34 [matrine]
LC50 against the B. tabaci: 13.35 µg/mL (≈ 53.8 µM)
